For one assay, the target named is human TLR7 (Homo sapiens (Human), UniProt Q9NYK1). The assay can be described thus: HEK293 NFKB reporter assay, human TLR7. The format is cell-based. The note with it: HEK293 reporter cells expressing human TLR7; read-out: HEK293 hTLR7 EC50. The protocol:
(§1) Each compound was synthesized, purified, and characterized by mass spectrometry and shown to have the mass indicated. Additional experimental procedures are found in the Examples. Activity against HEK293 NFKB reporter cells expressing human TLR7 or human TLR8 was measured according to Example 202.
(§2) HEK293 reporter cells expressing human TLR7 or human TLR8 were purchased from Invivogen and vendor protocols were followed for cellular propagation and experimentation. Briefly, cells were grown to 80-85% confluence at 5% CO2 in DMEM supplemented with 10% FBS, Zeocin, and Blasticidin. Cells were then seeded in 96-well flat plates at 4×10^4 cells/well with substrate containing HEK detection medium and immunostimulatory molecules. Activity was measured using a plate reader at 620-655 nm wavelength.
In general terms: A reporter such as luciferase makes a cellular process visible.

The next assay deals with human TLR8 (Homo sapiens (Human), UniProt Q9NR97). Put plainly: HEK293 NFKB reporter assay, human TLR8. The format is cell-based. The note with it: HEK293 reporter cells expressing human TLR8; read-out: HEK293 hTLR8 EC50. The protocol:
as §1, §2

Usually EC50 stands for the concentration needed to bring the measured effect to its halfway point.

Sequence of human TLR8 (Q9NR97 27-1041): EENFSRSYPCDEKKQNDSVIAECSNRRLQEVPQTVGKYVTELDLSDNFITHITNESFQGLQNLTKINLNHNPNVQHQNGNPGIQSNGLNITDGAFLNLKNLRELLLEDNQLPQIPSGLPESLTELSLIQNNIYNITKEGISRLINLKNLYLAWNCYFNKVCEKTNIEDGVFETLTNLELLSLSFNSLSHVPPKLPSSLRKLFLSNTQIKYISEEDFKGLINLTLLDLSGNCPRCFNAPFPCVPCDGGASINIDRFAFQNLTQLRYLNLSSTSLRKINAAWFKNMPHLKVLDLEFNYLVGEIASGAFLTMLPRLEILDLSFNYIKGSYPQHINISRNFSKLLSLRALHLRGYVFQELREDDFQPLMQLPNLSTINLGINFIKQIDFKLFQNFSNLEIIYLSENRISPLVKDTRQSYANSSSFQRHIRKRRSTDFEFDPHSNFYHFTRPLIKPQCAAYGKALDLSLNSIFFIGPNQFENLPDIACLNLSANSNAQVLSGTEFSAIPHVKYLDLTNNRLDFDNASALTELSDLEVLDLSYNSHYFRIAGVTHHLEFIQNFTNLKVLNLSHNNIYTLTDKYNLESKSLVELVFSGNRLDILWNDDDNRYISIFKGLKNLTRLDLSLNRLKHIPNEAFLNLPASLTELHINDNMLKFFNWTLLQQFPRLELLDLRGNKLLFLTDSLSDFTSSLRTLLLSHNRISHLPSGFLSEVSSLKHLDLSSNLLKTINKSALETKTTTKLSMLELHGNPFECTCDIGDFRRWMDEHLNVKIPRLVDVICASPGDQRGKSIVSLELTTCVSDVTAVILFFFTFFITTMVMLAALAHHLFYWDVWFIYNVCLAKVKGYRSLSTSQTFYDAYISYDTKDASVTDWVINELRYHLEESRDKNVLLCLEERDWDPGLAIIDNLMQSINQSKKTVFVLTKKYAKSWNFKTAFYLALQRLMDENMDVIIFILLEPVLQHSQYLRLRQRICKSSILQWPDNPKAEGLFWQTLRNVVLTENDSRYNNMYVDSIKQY
Sequence of human TLR7 (Q9NYK1 27-1049): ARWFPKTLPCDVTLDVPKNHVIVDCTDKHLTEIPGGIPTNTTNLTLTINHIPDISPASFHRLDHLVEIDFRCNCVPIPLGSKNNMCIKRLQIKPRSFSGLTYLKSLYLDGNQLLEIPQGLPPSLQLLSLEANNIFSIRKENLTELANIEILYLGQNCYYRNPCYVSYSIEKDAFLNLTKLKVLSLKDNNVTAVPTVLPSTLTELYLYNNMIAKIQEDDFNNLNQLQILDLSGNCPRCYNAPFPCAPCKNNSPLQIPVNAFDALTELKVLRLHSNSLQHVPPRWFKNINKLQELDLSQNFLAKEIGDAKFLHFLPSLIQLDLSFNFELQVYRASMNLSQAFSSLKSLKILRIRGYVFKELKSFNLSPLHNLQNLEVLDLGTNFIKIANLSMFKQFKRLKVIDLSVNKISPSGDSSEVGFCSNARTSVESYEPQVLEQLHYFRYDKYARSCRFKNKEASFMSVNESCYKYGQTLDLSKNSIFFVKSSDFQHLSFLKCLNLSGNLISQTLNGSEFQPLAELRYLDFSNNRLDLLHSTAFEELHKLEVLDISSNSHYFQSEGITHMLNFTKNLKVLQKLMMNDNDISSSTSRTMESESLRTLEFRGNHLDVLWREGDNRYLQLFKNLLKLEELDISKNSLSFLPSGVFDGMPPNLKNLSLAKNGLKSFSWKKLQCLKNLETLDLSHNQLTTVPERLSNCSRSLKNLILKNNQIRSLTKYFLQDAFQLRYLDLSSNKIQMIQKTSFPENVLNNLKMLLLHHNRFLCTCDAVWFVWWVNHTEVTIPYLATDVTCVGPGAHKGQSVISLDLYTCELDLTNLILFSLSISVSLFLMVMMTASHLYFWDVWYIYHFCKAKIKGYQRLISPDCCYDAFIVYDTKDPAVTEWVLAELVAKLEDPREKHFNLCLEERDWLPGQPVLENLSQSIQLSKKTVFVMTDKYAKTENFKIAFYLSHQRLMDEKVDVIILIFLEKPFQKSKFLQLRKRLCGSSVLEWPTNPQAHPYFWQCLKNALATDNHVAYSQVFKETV

For the compound `CCCN(OCC)C(=O)C1=Cc2ccc(-c3cc(CN)ncn3)cc2N=C(N)C1` [CycBz-48], the concentration for a half-maximal effect (EC50) is 9 µM on human TLR7 and 2.16 µM on human TLR8.
With `CCCN(CC1CNC(=O)O1)C(=O)C1=Cc2ccc(-c3cnc(CN)nc3)cc2N=C(N)C1` (centres unmarked) [CycBz-25], the concentration for a half-maximal effect (EC50) on human TLR7 turned out to be 9 µM.
Same read-out and setting: the same measure for `CCCN(OCC1COC(=O)N1)C(=O)C1=Cc2ccc(-c3cnc(CN)nc3)cc2N=C(N)C1` (centres unmarked) [CycBz-46]: 9 µM.
As for `CCCN(CCCO)C(=O)C1=Cc2ccc(-c3cccc(S(=O)(=O)N4CC(CNC(=O)OC(C)(C)C)C4)c3)cc2N=C(N)C1` [CycBz-58], the results for the EC50 on human TLR7 and at human TLR8 were 7.15 µM and 0.374 µM, respectively.
For `CCCN(OCC)C(=O)C1=Cc2ccc(-c3ccc(C(=O)N4CCC[C@H]4C(=O)OC)cc3)cc2N=C(N)C1` [CycBz-59] the same measures were 0.047 µM and 0.006 µM.
The like results for `CCCN(CCCCO)C(=O)C1=Cc2ccc(-c3cccc(S(=O)(=O)N4CC(CN)C4)c3)cc2N=C(N)C1` [CycBz-62] were, in that order, 9 µM and 4.66 µM.
For `CCCN(OCC)C(=O)C1=Cc2ccc(-c3ccc(C(=O)N4CCCC4)cc3)cc2N=C(N)C1` [CycBz-67] the same measures were 3.01 µM and 0.256 µM.
For `CCCN(OCC)C(=O)C1=Cc2ccc(-c3ccc(C(=O)N4CCC[C@@H]4C(=O)OC)cc3)cc2N=C(N)C1` [CycBz-64], the concentration for a half-maximal effect (EC50) was determined as 3.43 µM at human TLR7 and 0.097 µM at human TLR8.
With `CCCN(OCCO)C(=O)C1=Cc2ccc(-c3cncc(S(=O)(=O)N4CC(CN)C4)c3)cc2N=C(N)C1` [CycBz-43], the EC50 at human TLR7 was found to be 9 µM.
For the compound `CCCN(OCC)C(=O)C1=Cc2ccc(-c3ccc(C(=O)N4CCC(N)C4)cc3)cc2N=C(N)C1` (centres unmarked) [CycBz-54], the 50% effective concentration (EC50) at human TLR7 is 3.09 µM; on human TLR8 it was 0.86 µM.
For `CCCN(OCC)C(=O)C1=Cc2ccc(-c3ccc(C(=O)N[C@@H](C)C(=O)OC(C)(C)C)cc3)cc2N=C(N)C1` [CycBz-74], the EC50 turned out to be 1.92 µM on human TLR7 and 0.012 µM on human TLR8.
On to `CCCN(CCCNC(=O)OC1CCC1)C(=O)C1=Cc2ccc(-c3cccc(S(=O)(=O)N4CC(CN)C4)c3)cc2N=C(N)C1` [CycBz-65], for which the EC50 on human TLR7 stood at 2.31 µM; on human TLR8 it was 1.56 µM.
The like results for `CCCN(OCCNC(=O)OC1CCC1)C(=O)C1=Cc2ccc(-c3cccc(S(=O)(=O)N4CC(CN)C4)c3)cc2N=C(N)C1` [CycBz-60] were, in that order, 0.738 µM and 0.163 µM.
For `CCCN(OCCNC(=O)NC1COC1)C(=O)C1=Cc2ccc(-c3cnc(CN)nc3)cc2N=C(N)C1` [CycBz-17] the same measures were 9 µM and 9 µM.
For `CCCN(OCC)C(=O)C1=Cc2ccc(-c3cccc(S(=O)(=O)N4CC(CNC(=O)C5CCNCC5)C4)c3)cc2N=C(N)C1` [CycBz-51] the same measures were 9 µM and 4.19 µM.
For `CCCN(CCCO)C(=O)C1=Cc2ccc(-c3cccc(S(=O)(=O)N4CC(CN)C4)c3)cc2N=C(N)C1` [CycBz-63], the values for the EC50 on human TLR7 and on human TLR8 were 9 µM and 3.61 µM, respectively.
The like results for `CCCN(CC1CNC(=O)CO1)C(=O)C1=Cc2ccc(-c3cnc(CN)nc3)cc2N=C(N)C1` (centres unmarked) [CycBz-42] were, in that order, 9 µM and 9 µM.
For `CCCN(OCC)C(=O)C1=Cc2ccc(-c3ccc(C(=O)OC)cc3)cc2N=C(N)C1` [CycBz-52] the same measures were 5.76 µM and 0.629 µM.
For `CCCN(CCCO)C(=O)C1=Cc2ccc(-c3cnc(CN)nc3)cc2N=C(N)C1` [CycBz-26] the same measures were 9 µM and 9 µM.
Take `CCCN(OCC)C(=O)C1=Cc2ccc(-c3ncc(CN)cn3)cc2N=C(N)C1` [CycBz-10]: the EC50 on human TLR7 worked out at 9 µM.
With `CCCN(OCC)C(=O)C1=Cc2ccc(-c3ccc(C(=O)N4CCC(NC(=O)OC(C)(C)C)C4)cc3)cc2N=C(N)C1` (centres unmarked) [CycBz-55], the concentration for a half-maximal effect (EC50) turned out to be 3.68 µM at human TLR7 and 0.377 µM on human TLR8.
The like results for `CCCN(CCCNC(N)=O)C(=O)C1=Cc2ccc(-c3cccc(S(=O)(=O)N4CC(CN)C4)c3)cc2N=C(N)C1` [CycBz-70] were, in that order, 9 µM and 9 µM.
Turning to `CCCN(CCO)C(=O)C1=Cc2ccc(-c3cccc(S(=O)(=O)N4CC(CN)C4)c3)cc2N=C(N)C1` [CycBz-68], the EC50 was 9 µM on human TLR7 and 4.91 µM on human TLR8.
For `CCCN(OCC(F)(F)F)C(=O)C1=Cc2ccc(-c3cccc(S(=O)(=O)N4CC(CN)C4)c3)cc2N=C(N)C1` [CycBz-49] the same measures were 3.93 µM and 0.461 µM.
In the case of `CCCN(OCC)C(=O)C1=Cc2ccc(-c3ccc(C(=O)N[C@H](C)C(=O)OC(C)(C)C)cc3)cc2N=C(N)C1` [CycBz-75], the concentration giving a half-maximal response (EC50) at human TLR7 was 4.75 µM; at human TLR8, 0.086 µM.
With `CCCN(C(=O)C1=Cc2ccc(-c3cnc(CN)nc3)cc2N=C(N)C1)[C@H]1C[C@H](NC(=O)OC2CCC2)C1` [CycBz-44], on human TLR7, the EC50 came out at 9 µM.

The record behind these values is US20240033370A1, “ANTI-PD-L1 IMMUNOCONJUGATES, AND USES THEREOF” (BOLT BIOTHERAPEUTICS, INC., priority 2020, published 2024).
